± gives the expanded uncertainty stated by the source.
Tests used:
[1] = mn = molality of the nth substance listed, in mol/kg; settings: 350 kPa, Liquid
[2] = molar heat capacity at constant pressure; mn = molality of the nth substance listed, in mol/kg; settings: 350 kPa, Liquid

N[C@@H](CCC(=O)O)C(=O)O [L-glutamic acid] + O
Settings	mass density, m1 = 0.00249 [kg/m3]	mass density, m1 = 0.005 [kg/m3]	mass density, m1 = 0.00999 [kg/m3]	mass density, m1 = 0.01497 [kg/m3]	mass density, m1 = 0.02005 [kg/m3]	molar heat capacity at constant pressure, m1 = 0.00249 [J/K/mol]	molar heat capacity at constant pressure, m1 = 0.005 [J/K/mol]	molar heat capacity at constant pressure, m1 = 0.00999 [J/K/mol]	molar heat capacity at constant pressure, m1 = 0.01497 [J/K/mol]	molar heat capacity at constant pressure, m1 = 0.02005 [J/K/mol]
[1], 278.15 K	1000.19 ± 0.17	1000.25 ± 0.17	1001.06 ± 0.17	1000.93 ± 0.17	1001.36 ± 0.17	–	–	–	–	–
[1], 283.15 K	999.98 ± 0.17	999.98 ± 0.17	1000.74 ± 0.17	1000.64 ± 0.17	1001.07 ± 0.17	–	–	–	–	–
[1], 288.15 K	999.38 ± 0.17	999.38 ± 0.17	1000.11 ± 0.17	1000.03 ± 0.17	1000.44 ± 0.17	–	–	–	–	–
[1], 298.15 K	997.3 ± 0.17	997.33 ± 0.17	998.03 ± 0.17	997.95 ± 0.17	998.34 ± 0.17	–	–	–	–	–
[1], 308.15 K	994.32 ± 0.18	994.31 ± 0.18	994.97 ± 0.18	994.92 ± 0.18	995.33 ± 0.18	–	–	–	–	–
[1], 318.15 K	990.49 ± 0.19	990.5 ± 0.19	991.14 ± 0.19	991.09 ± 0.19	991.48 ± 0.19	–	–	–	–	–
[1], 328.15 K	985.92 ± 0.2	985.99 ± 0.2	986.59 ± 0.2	986.57 ± 0.2	986.97 ± 0.2	–	–	–	–	–
[1], 338.15 K	980.82 ± 0.21	980.87 ± 0.21	981.45 ± 0.21	981.46 ± 0.21	981.84 ± 0.21	–	–	–	–	–
[1], 348.15 K	975.1 ± 0.22	975.18 ± 0.22	975.74 ± 0.22	975.74 ± 0.22	976.12 ± 0.22	–	–	–	–	–
[1], 358.15 K	968.87 ± 0.23	968.96 ± 0.23	969.5 ± 0.23	969.51 ± 0.23	969.88 ± 0.23	–	–	–	–	–
[1], 368.15 K	962.18 ± 0.25	962.24 ± 0.25	962.76 ± 0.25	962.76 ± 0.25	963.12 ± 0.25	–	–	–	–	–
[2], 278.15 K	–	–	–	–	–	75.67 ± 0.3	75.7 ± 0.3	75.73 ± 0.3	75.73 ± 0.3	75.74 ± 0.3
[2], 283.15 K	–	–	–	–	–	75.5 ± 0.3	75.53 ± 0.3	75.55 ± 0.3	75.56 ± 0.3	75.57 ± 0.3
[2], 288.15 K	–	–	–	–	–	75.39 ± 0.3	75.41 ± 0.3	75.44 ± 0.3	75.45 ± 0.3	75.46 ± 0.3
[2], 293.15 K	–	–	–	–	–	75.32 ± 0.3	75.34 ± 0.3	75.36 ± 0.3	75.38 ± 0.3	75.38 ± 0.3
[2], 298.15 K	–	–	–	–	–	75.27 ± 0.3	75.29 ± 0.3	75.31 ± 0.3	75.33 ± 0.3	75.33 ± 0.3
[2], 303.15 K	–	–	–	–	–	75.24 ± 0.3	75.27 ± 0.3	75.28 ± 0.3	75.3 ± 0.3	75.3 ± 0.3
[2], 308.15 K	–	–	–	–	–	75.23 ± 0.3	75.25 ± 0.3	75.27 ± 0.3	75.29 ± 0.3	75.29 ± 0.3
[2], 313.15 K	–	–	–	–	–	75.23 ± 0.3	75.25 ± 0.3	75.27 ± 0.3	75.28 ± 0.3	75.29 ± 0.3
[2], 318.15 K	–	–	–	–	–	75.24 ± 0.3	75.27 ± 0.3	75.28 ± 0.3	75.3 ± 0.3	75.31 ± 0.3
[2], 323.15 K	–	–	–	–	–	75.27 ± 0.3	75.29 ± 0.3	75.3 ± 0.3	75.32 ± 0.3	75.33 ± 0.3
[2], 328.15 K	–	–	–	–	–	75.3 ± 0.3	75.32 ± 0.3	75.34 ± 0.3	75.35 ± 0.3	75.36 ± 0.3
[2], 333.15 K	–	–	–	–	–	75.34 ± 0.3	75.36 ± 0.3	75.38 ± 0.3	75.39 ± 0.3	75.4 ± 0.3
[2], 338.15 K	–	–	–	–	–	75.39 ± 0.3	75.41 ± 0.3	75.43 ± 0.3	75.44 ± 0.3	75.45 ± 0.3
[2], 343.15 K	–	–	–	–	–	75.45 ± 0.3	75.47 ± 0.3	75.48 ± 0.3	75.5 ± 0.3	75.51 ± 0.3
[2], 348.15 K	–	–	–	–	–	75.51 ± 0.3	75.54 ± 0.3	75.55 ± 0.3	75.57 ± 0.3	75.58 ± 0.3
[2], 353.15 K	–	–	–	–	–	75.58 ± 0.3	75.61 ± 0.3	75.62 ± 0.3	75.64 ± 0.3	75.65 ± 0.3
[2], 358.15 K	–	–	–	–	–	75.66 ± 0.3	75.69 ± 0.3	75.7 ± 0.3	75.72 ± 0.3	75.73 ± 0.3
[2], 363.15 K	–	–	–	–	–	75.75 ± 0.3	75.78 ± 0.3	75.79 ± 0.3	75.81 ± 0.3	75.82 ± 0.3
[2], 368.15 K	–	–	–	–	–	75.85 ± 0.3	75.87 ± 0.3	75.88 ± 0.3	75.91 ± 0.3	75.91 ± 0.3
[2], 373.15 K	–	–	–	–	–	75.95 ± 0.3	75.98 ± 0.3	75.99 ± 0.3	76.01 ± 0.3	76.02 ± 0.3
[2], 378.15 K	–	–	–	–	–	76.06 ± 0.3	76.09 ± 0.3	76.1 ± 0.3	76.13 ± 0.3	76.13 ± 0.31
[2], 383.15 K	–	–	–	–	–	76.18 ± 0.3	76.21 ± 0.3	76.22 ± 0.3	76.25 ± 0.3	76.25 ± 0.31
[2], 388.15 K	–	–	–	–	–	76.32 ± 0.3	76.34 ± 0.3	76.35 ± 0.3	76.38 ± 0.3	76.38 ± 0.31
[2], 393.15 K	–	–	–	–	–	76.46 ± 0.31	76.48 ± 0.31	76.49 ± 0.31	76.53 ± 0.31	76.51 ± 0.31

— the NIST ThermoML archive (doi:10.1016/j.jct.2006.08.008)
